# Test results as given in patent US8192962B2, “Processes for detecting toxic substances” (Daikin Industries, Ltd., priority 2001, dated 2012).
# System: Unknown protein yeast genes
# Experiment: DNA chip mRNA expression in yeast, unknown protein yeast genes (Table 1)
# Type: cell-based, Saccharomyces cerevisiae S288C
# In short: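 Chemical exposure: 2 h, log-phase S. cerevisiae S288C, YPD, 25° C., dose set to inhibit growth without death. Profiling: mRNA labeled by reverse transcription with Cy3- or Cy5-dUTP, hybridized to whole-genome array. Output: fluorescence ratio against untreated culture.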
compound,measurement,setting,value
"[Cl][Cd][Cl] [(2), CdCl2]",The level of expressed mRNA in the presence of chemical substance/The level of expressed mRNA in the absence of chemical substance,"yeast gene YKL195W, incubated two hours with chemical substance",0.5
same,The level of expressed mRNA in the presence of chemical substance/The level of expressed mRNA in the absence of chemical substance,"yeast gene YKR091W, incubated two hours with chemical substance",2.3
same,The level of expressed mRNA in the presence of chemical substance/The level of expressed mRNA in the absence of chemical substance,"yeast gene YLR054C, incubated two hours with chemical substance",1.5
same,The level of expressed mRNA in the presence of chemical substance/The level of expressed mRNA in the absence of chemical substance,"yeast gene YLR149C, incubated two hours with chemical substance",1.9
same,The level of expressed mRNA in the presence of chemical substance/The level of expressed mRNA in the absence of chemical substance,"yeast gene YLR152C, incubated two hours with chemical substance",1.3
same,The level of expressed mRNA in the presence of chemical substance/The level of expressed mRNA in the absence of chemical substance,"yeast gene YLR194C, incubated two hours with chemical substance",2.2
same,The level of expressed mRNA in the presence of chemical substance/The level of expressed mRNA in the absence of chemical substance,"yeast gene YLR324W, incubated two hours with chemical substance",1.2
same,The level of expressed mRNA in the presence of chemical substance/The level of expressed mRNA in the absence of chemical substance,"yeast gene YLR350W, incubated two hours with chemical substance",1.9
same,The level of expressed mRNA in the presence of chemical substance/The level of expressed mRNA in the absence of chemical substance,"yeast gene YLR387C, incubated two hours with chemical substance",1.6
same,The level of expressed mRNA in the presence of chemical substance/The level of expressed mRNA in the absence of chemical substance,yeast gene YLR460C,2.1
same,The level of expressed mRNA in the presence of chemical substance/The level of expressed mRNA in the absence of chemical substance,"yeast gene YML117W, incubated two hours with chemical substance",2.2
same,The level of expressed mRNA in the presence of chemical substance/The level of expressed mRNA in the absence of chemical substance,"yeast gene YMR009W, incubated two hours with chemical substance",1.9
same,The level of expressed mRNA in the presence of chemical substance/The level of expressed mRNA in the absence of chemical substance,"yeast gene YMR067C, incubated two hours with chemical substance",0.9
same,The level of expressed mRNA in the presence of chemical substance/The level of expressed mRNA in the absence of chemical substance,yeast gene YMR090W,9.5
same,The level of expressed mRNA in the presence of chemical substance/The level of expressed mRNA in the absence of chemical substance,"yeast gene YMR095C, incubated two hours with chemical substance",2.0
same,The level of expressed mRNA in the presence of chemical substance/The level of expressed mRNA in the absence of chemical substance,"yeast gene YMR097C, incubated two hours with chemical substance",1.0
same,The level of expressed mRNA in the presence of chemical substance/The level of expressed mRNA in the absence of chemical substance,"yeast gene YMR102C, incubated two hours with chemical substance",2.9
same,The level of expressed mRNA in the presence of chemical substance/The level of expressed mRNA in the absence of chemical substance,"yeast gene YMR107W, incubated two hours with chemical substance",3.9
same,The level of expressed mRNA in the presence of chemical substance/The level of expressed mRNA in the absence of chemical substance,"yeast gene YMR180C, incubated two hours with chemical substance",0.9
same,The level of expressed mRNA in the presence of chemical substance/The level of expressed mRNA in the absence of chemical substance,"yeast gene YMR184W, incubated two hours with chemical substance",5.4
same,The level of expressed mRNA in the presence of chemical substance/The level of expressed mRNA in the absence of chemical substance,"yeast gene YMR191W, incubated two hours with chemical substance",2.4
same,The level of expressed mRNA in the presence of chemical substance/The level of expressed mRNA in the absence of chemical substance,"yeast gene YMR295C, incubated two hours with chemical substance",1.0
same,The level of expressed mRNA in the presence of chemical substance/The level of expressed mRNA in the absence of chemical substance,"yeast gene YMR316W, incubated two hours with chemical substance",2.9
same,The level of expressed mRNA in the presence of chemical substance/The level of expressed mRNA in the absence of chemical substance,"yeast gene YNL044W, incubated two hours with chemical substance",0.9
same,The level of expressed mRNA in the presence of chemical substance/The level of expressed mRNA in the absence of chemical substance,"yeast gene YNL074C, incubated two hours with chemical substance",1.3
same,The level of expressed mRNA in the presence of chemical substance/The level of expressed mRNA in the absence of chemical substance,"yeast gene YNL092W, incubated two hours with chemical substance",1.4
same,The level of expressed mRNA in the presence of chemical substance/The level of expressed mRNA in the absence of chemical substance,"yeast gene YNL115C, incubated two hours with chemical substance",1.8
same,The level of expressed mRNA in the presence of chemical substance/The level of expressed mRNA in the absence of chemical substance,"yeast gene YNL156C, incubated two hours with chemical substance",1.2
same,The level of expressed mRNA in the presence of chemical substance/The level of expressed mRNA in the absence of chemical substance,"yeast gene YNL234W, incubated two hours with chemical substance",1.1
same,The level of expressed mRNA in the presence of chemical substance/The level of expressed mRNA in the absence of chemical substance,"yeast gene YNL281W, incubated two hours with chemical substance",1.3
same,The level of expressed mRNA in the presence of chemical substance/The level of expressed mRNA in the absence of chemical substance,"yeast gene YNL305C, incubated two hours with chemical substance",2.2
same,The level of expressed mRNA in the presence of chemical substance/The level of expressed mRNA in the absence of chemical substance,"yeast gene YNR068C, incubated two hours with chemical substance",1.5
same,The level of expressed mRNA in the presence of chemical substance/The level of expressed mRNA in the absence of chemical substance,"yeast gene YOL032W, incubated two hours with chemical substance",0.8
same,The level of expressed mRNA in the presence of chemical substance/The level of expressed mRNA in the absence of chemical substance,"yeast gene YOL036W, incubated two hours with chemical substance",0.9
same,The level of expressed mRNA in the presence of chemical substance/The level of expressed mRNA in the absence of chemical substance,"yeast gene YOL047C, incubated two hours with chemical substance",1.1
same,The level of expressed mRNA in the presence of chemical substance/The level of expressed mRNA in the absence of chemical substance,"yeast gene YOL071W, incubated two hours with chemical substance",2.0
same,The level of expressed mRNA in the presence of chemical substance/The level of expressed mRNA in the absence of chemical substance,"yeast gene YOL082W, incubated two hours with chemical substance",1.6
same,The level of expressed mRNA in the presence of chemical substance/The level of expressed mRNA in the absence of chemical substance,"yeast gene YOL083W, incubated two hours with chemical substance",2.3
same,The level of expressed mRNA in the presence of chemical substance/The level of expressed mRNA in the absence of chemical substance,"yeast gene YOL117W, incubated two hours with chemical substance",1.1
same,The level of expressed mRNA in the presence of chemical substance/The level of expressed mRNA in the absence of chemical substance,"yeast gene YOL131W, incubated two hours with chemical substance",1.5
same,The level of expressed mRNA in the presence of chemical substance/The level of expressed mRNA in the absence of chemical substance,yeast gene YOL150C,3.7
same,The level of expressed mRNA in the presence of chemical substance/The level of expressed mRNA in the absence of chemical substance,"yeast gene YOL162W, incubated two hours with chemical substance",6.9
same,The level of expressed mRNA in the presence of chemical substance/The level of expressed mRNA in the absence of chemical substance,"yeast gene YOR019W, incubated two hours with chemical substance",1.2
same,The level of expressed mRNA in the presence of chemical substance/The level of expressed mRNA in the absence of chemical substance,"yeast gene YOR197W, incubated two hours with chemical substance",1.0
same,The level of expressed mRNA in the presence of chemical substance/The level of expressed mRNA in the absence of chemical substance,"yeast gene YPL087W, incubated two hours with chemical substance",5.1
same,The level of expressed mRNA in the presence of chemical substance/The level of expressed mRNA in the absence of chemical substance,"yeast gene YPL196W, incubated two hours with chemical substance",1.6
same,The level of expressed mRNA in the presence of chemical substance/The level of expressed mRNA in the absence of chemical substance,"yeast gene YPL206C, incubated two hours with chemical substance",2.9
same,The level of expressed mRNA in the presence of chemical substance/The level of expressed mRNA in the absence of chemical substance,"yeast gene YPL222W, incubated two hours with chemical substance",3.5
same,The level of expressed mRNA in the presence of chemical substance/The level of expressed mRNA in the absence of chemical substance,"yeast gene YPR023C, incubated two hours with chemical substance",1.4
same,The level of expressed mRNA in the presence of chemical substance/The level of expressed mRNA in the absence of chemical substance,"yeast gene YPR151C, incubated two hours with chemical substance",2.0
